This is an account of results in US20120245154A1, “SUBSTITUTED AMINOTHIAZINE DERIVATIVE” (SHIONOGI & CO., LTD., priority 2009, published 2012).

SMILES strings stand for the structures.

Data set [1] in a line: Brain distribution studies. The format is in vivo. The following applies: brain/plasma, iv; rat, intravenously 0.5 mg/mL/kg, 30 minutes later; read-out: brain Kp value (area ratio brain/plasma). Here is the method: Compound of the present invention was intravenously administered to a rat at 0.5 mg/mL/kg dosage. […] The brain was enucleated and 20-25% of homogenate thereof was prepared with distilled water. The obtained blood was used as plasma after centrifuging. To the brain sample was added the control plasma at 1:1. To the plasma samples was added the control brains at 1:1. Each sample was measured using LC/MS/MS. The obtained area ratio (a brain/plasma) was used for the brain Kp value.

In a further data set the target is T1, hERG channel (IKr) (Homo sapiens, UniProt Q12809).
T1 construct: expressed in transfected cells; host or cells: HEK293
Nature of the data set: hERG test. The format is cell-based. Conditions: HEK293 cells expressing hERG channel, pH 7.4, whole cell patch clamp, concentration not given, read-out: % inhibition relative to the tail peak current (IKr). From the text:
For the purpose of assessing risk of an electrocardiogram QT interval prolongation, effects on delayed rectifier K+ current (IKr), which plays an important role in the ventricular repolarization process, was studied using HEK293 cells expressing human ether-a-go-go related gene (hERG) channel.
After a cell was retained at a membrane potential of −80 mV by whole cell patch clamp method using an automated patch clamp system (PatchXpress 7000A, Axon Instruments Inc.), IKr induced by depolarization pulse stimulation at +50 mV for 2 seconds and, further, repolarization pulse stimulation at −50 mV for 2 seconds was recorded. […] From the recording IKr, an absolute value of the tail peak current was measured based on the current value at the resting membrane potential using an analysis software (DataXpress vet.1, Molecular Devices Corporation). Further, the % inhibition relative to the tail peak current before application of the test substance was calculated, and compared with the vehicle-applied group (0.1% dimethyl sulfoxide solution) to assess influence of the test substance on IKr.

T1 sequence (Q12809 whole entry): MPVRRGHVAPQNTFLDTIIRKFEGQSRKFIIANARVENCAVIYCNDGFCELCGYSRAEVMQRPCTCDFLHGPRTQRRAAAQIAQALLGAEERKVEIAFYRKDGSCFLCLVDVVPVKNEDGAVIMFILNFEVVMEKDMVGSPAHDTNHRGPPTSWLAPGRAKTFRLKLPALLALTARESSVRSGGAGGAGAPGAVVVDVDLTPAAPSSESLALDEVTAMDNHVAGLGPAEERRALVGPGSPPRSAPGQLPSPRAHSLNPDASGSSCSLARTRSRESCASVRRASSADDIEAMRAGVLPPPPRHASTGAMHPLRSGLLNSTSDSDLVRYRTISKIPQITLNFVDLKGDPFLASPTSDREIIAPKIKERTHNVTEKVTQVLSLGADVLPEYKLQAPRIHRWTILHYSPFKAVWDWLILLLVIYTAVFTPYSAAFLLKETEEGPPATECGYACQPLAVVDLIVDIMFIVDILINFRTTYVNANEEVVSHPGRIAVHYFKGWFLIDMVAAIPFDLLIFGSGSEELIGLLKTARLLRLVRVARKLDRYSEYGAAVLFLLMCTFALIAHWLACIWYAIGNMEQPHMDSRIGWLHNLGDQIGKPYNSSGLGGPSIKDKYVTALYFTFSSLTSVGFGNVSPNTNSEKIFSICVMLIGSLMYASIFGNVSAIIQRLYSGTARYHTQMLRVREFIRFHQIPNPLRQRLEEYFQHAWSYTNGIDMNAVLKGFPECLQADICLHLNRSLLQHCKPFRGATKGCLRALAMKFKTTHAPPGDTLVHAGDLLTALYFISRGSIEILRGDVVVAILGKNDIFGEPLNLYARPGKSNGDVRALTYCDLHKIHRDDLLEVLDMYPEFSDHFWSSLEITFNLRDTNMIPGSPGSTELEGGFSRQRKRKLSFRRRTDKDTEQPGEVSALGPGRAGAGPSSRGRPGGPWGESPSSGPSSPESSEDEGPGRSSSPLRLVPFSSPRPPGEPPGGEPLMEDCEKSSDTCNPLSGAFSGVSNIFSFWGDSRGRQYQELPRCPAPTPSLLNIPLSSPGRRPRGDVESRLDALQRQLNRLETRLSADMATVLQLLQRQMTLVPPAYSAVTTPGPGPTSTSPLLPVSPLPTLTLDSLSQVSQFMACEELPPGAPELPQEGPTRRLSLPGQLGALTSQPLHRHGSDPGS

As to `CC(C)C1=C[C@@](C)(c2cc(NC(=O)c3ccc(C#N)cn3)ccc2F)N=C(N)S1` [Compound I-54], the Kp at 0.5 h in data set [1] came to 2.5.
On to `Cc1cnc(C(=O)Nc2ccc(F)c([C@]3(C)C=C(C(F)F)SC(N)=N3)c2)cn1` [Compound I-14], for which, on hERG channel (IKr), the inhibition at 10 min was found to be 3.8%.
